From US20230295197A1, “STAT5 and STAT6 Degraders and Uses Thereof” (REGENTS OF THE UNIVERSITY OF MICHICAN, priority 2022, published 2023)
Read-outs that look alike come from different tables or passages of the source.

Target: T1, STAT6 (Homo sapiens, UniProt P42226)
T1 construct: endogenous in cells; host or cells: MOLM-16, KU-812, SKNO1, MB231, L1236
T1 sequence (P42226 1-847): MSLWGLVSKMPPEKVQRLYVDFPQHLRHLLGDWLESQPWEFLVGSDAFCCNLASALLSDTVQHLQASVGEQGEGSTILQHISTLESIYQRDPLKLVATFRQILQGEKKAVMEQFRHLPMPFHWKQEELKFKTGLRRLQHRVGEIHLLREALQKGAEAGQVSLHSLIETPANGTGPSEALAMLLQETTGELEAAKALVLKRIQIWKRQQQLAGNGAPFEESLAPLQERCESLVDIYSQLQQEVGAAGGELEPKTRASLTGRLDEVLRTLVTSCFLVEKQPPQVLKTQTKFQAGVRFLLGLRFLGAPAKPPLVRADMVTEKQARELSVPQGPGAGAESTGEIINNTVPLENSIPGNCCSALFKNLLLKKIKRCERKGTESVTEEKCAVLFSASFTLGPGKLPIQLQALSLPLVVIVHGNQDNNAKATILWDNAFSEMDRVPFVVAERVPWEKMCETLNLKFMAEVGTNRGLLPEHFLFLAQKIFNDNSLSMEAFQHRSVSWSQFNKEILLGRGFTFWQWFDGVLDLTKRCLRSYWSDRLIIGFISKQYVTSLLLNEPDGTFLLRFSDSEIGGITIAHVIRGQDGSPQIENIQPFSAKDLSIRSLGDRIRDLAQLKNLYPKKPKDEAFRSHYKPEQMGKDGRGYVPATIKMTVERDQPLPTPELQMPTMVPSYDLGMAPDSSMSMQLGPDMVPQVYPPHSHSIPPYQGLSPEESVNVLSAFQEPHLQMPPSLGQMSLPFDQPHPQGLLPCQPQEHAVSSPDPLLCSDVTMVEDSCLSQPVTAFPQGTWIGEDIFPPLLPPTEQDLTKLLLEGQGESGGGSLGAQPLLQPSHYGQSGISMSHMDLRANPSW
Experiment: Immunoblotting (Western blot) analysis of STAT6 degradation efficiency of degraders in treated cells
Type: cell-based
Experimental: Evaluation of the degradation efficiency of degraders may be accomplished by immunoblotting analysis. The representative general protocol is the following:
Cells are maintained in the appropriate culture medium with 10% FBS at 37° C. and an atmosphere of 5% CO2. Cell lines are used within three months of thawing fresh vials. Cells are lysed 1× Cell Lysis Buffer (Cell Signaling Technology, #9803), resolved by SDS-PAGE NuPAGE gel (Thermo Fisher Scientific), and transferred to a PVDF membrane (Millipore). Membranes are blocked using Odyssey TBS Blocker Buffer (LI-COR). IRDye 680RD and 800CW Dye-labeled secondary antibodies (LI-COR) are used. The washed membranes are scanned using Odyssey CLx imager (LI-COR). The intensity of Western blot signaling is quantitated using the Odyssey software. Primary antibodies used are: STAT5 Rabbit mAb (Cell Signaling Technology, #94205), STAT6 Rabbit mAb (Cell Signaling Technology, #5397) and GAPDH mouse monoclonal antibody (Santa Cruz Biotechnology, sc-47724).
To evaluate the degradation efficiency of degraders, immunoblotting analysis was performed. The general protocol is the following.
About 1 million cells for each data point were treated with compounds at indicated concentrations and durations. Untreated and treated cells in cell culture medium were transferred into tubes, followed by centrifugation at 3,000 rpm and 4° C. for 6 min Supernatants were removed from tubes and radioimmunoprecipitation assay (RIPA) lysis buffer supplemented with 1% protease inhibitor cocktail (Fisher Scientific cat. PI87786) and phosphatase inhibitor (Roche cat. 04906837001) were added to tubes containing the remaining cell pellets. The tubes were then left on ice for 30 min and placed in a −80° C. freezer. Subsequently they were thawed in 37° C. water, then centrifuged at 14,000 rpm for 15 min and the cell lysates transferred to new tubes. The concentration of total proteins in each tube was calculated using the Pierce BCA protein Assay kit (cat. 23225). Based on the calculated protein concentration, cell lysates containing approximately the same amount of proteins were transferred to new tubes, then distilled water and 4× Protein Sample Loading Buffer for Western Blots (LI-COR cat. 928-40004) supplemented with 20% of mercaptoethanol (Sigma Aldrich cat. M6250) were added on ice. The cell lysates were then reduced and denatured at 95° C. for 5 min. From the tubes containing cell lysates an equal amount of protein samples (20-40 μg) was loaded into precast 8%, 10%, 4%-12%, or 4%-20% Tris-glycine gels (Novex) filled with Tris-glycine SDS running buffer. After the proteins were resolved, they were transferred onto Immobile-FL PVDF Membrane (Millipore Sigma cat. IPFL00010), using Mini Trans-Blot Electrophoretic Transfer Cell (Bio-Rad 1703930). The membranes were blocked with Intercept Blocking Buffer (LI-COR cat. 927-70001) in LI-COR Western Blot boxes for 1 h at rt. The membranes were washed with 1× Tris-buffered saline-Tween-20 (TBST, 1× solution was made from 20×TBST solution, ThermoFisher Scientific cat. 28360) for 5 min 4 times. The membranes were incubated overnight at 4° C. in Intercept Blocking Buffer supplemented with primary antibodies (normally antibody:buffer 1:1000) and Tween-20. The membranes were washed with TBST for 5 min 4 times and were incubated with Intercept Blocking Buffer supplemented with IRDye 800CE Secondary Antibodies, IRDye 680RD Secondary Antibodies (LI-COR biosciences), Tween-20, and 10% SDS solution, for 1 h at rt. The membranes were then washed with TBST for 5 min 4 times and rinsed with deionized water before drying and scanning with Odyssey Dlx Amazing System (LI-COR). The immunoblots were finally quantified by the software.

[1] = L1236 cells, read-out: DC50 S6 L1236
[2] = MOLM-16 cells, class symbols, read-out: DC50 S6 MOLM-16
[3] = MOLM-16 cells, numeric bound, read-out: DC50 S6 MOLM-16

Question: For `Cc1ncsc1-c1ccc([C@H](C)NC(=O)[C@@H]2C[C@@H](O)CN2C(=O)[C@@H](NC(=O)CCCCNC(=O)COc2ccc3c(c2)CN(C(=O)[C@@H](NC(=O)c2cc4cc(C(F)(F)P(=O)(O)O)ccc4s2)C(C)(C)C)[C@H](C(=O)N2CCO[C@H](c4ccccc4)C2)C3)C(C)(C)C)cc1` [Compound 464, (difluoro(2-(((S)-1-((S)-7-(2-((5-(((S)-1-((2S,4R)-4-hydroxy-2-(((S)-1-(4-(4-methylthiazol-5-yl)phenyl)ethyl)carbamoyl)pyrrolidin-1-yl)-3,3-dimethyl-1-oxobutan-2-yl)amino)-5-oxopentyl)amino)-2-oxoethoxy)-3-((R)-2-phenylmorpholine-4-carbonyl)-3,4-dihydroisoquinolin-2(1H)-yl)-3,3-dimethyl-1-oxobutan-2-yl)carbamoyl)benzo[b]thiophen-5-yl)methyl)phosphonic acid], which DC50 [1] is on record?
Answer: The DC50 was greater than 10 µM.

Question: What about the DC50 [2] of the same compound?
Answer: Its DC50 is greater than 10 µM.

Question: Which DC50 [2] does the source give for `Cc1cc([C@H](C(=O)N2C[C@H](O)C[C@H]2C(=O)N[C@@H](CC(=O)NCCCCCCNC(=O)CO[C@@H]2C[C@@H](C(=O)N(C)c3ccc(Br)cc3)N(C(=O)[C@@H](NC(=O)c3cc4cc(C(F)(F)P(=O)(O)O)ccc4s3)C(C)(C)C)C2)c2ccc(-c3scnc3C)cc2)C(C)C)on1` [Compound 422, ((2-(((S)-1-((2S,4R)-2-((4-bromophenyl)(methyl)carbamoyl)-4-(2-((6-((S)-3-((2S,4R)-4-hydroxy-1-((R)-3-methyl-2-(3-methylisoxazol-5-yl)butanoyl)pyrrolidine-2-carboxamido)-3-(4-(4-methylthiazol-5-yl)phenyl)propanamido)hexyl)amino)-2-oxoethoxy)pyrrolidin-1-yl)-3,3-dimethyl-1-oxobutan-2-yl)carbamoyl)benzo[b]thiophen-5-yl)difluoromethyl)phosphonic acid] here?
Answer: Its DC50 is greater than 10 µM.

Question: Which DC50 [3] does the source give for `CC(C)(C)[C@H](NC(=O)c1cc2cc(C(F)(F)P(=O)(O)O)ccc2s1)C(=O)N1C[C@H](OCCCCCC#Cc2ccc3c(c2)CN(C2CCC(=O)NC2=O)C3=O)C[C@H]1C(=O)N1CCC[C@H](c2ccccc2)C1` (stereo partly drawn) [Compound 603, ((2-(((2S)-1-((2S,4R)-4-((7-(2-(2,6-dioxopiperidin-3-yl)-1-oxoisoindolin-5-yl)hept-6-yn-1-yl)oxy)-2-((R)-3-phenylpiperidine-1-carbonyl)pyrrolidin-1-yl)-3,3-dimethyl-1-oxobutan-2-yl)carbamoyl)benzo[b]thiophen-5-yl)difluoromethyl)phosphonic acid] here?
Answer: Its DC50 is greater than 0.3 µM.

Question: What does the source list for `Cc1ncsc1-c1ccc([C@H](C)NC(=O)[C@@H]2C[C@@H](O)CN2C(=O)[C@@H](NC(=O)CCCCCCCCNC(=O)CC(=O)N2CCN(C(=O)[C@@H](NC(=O)c3cc4cc(C(F)(F)P(=O)(O)O)ccc4s3)C(C)(C)C)[C@H](C(=O)N3CCO[C@H](c4ccccc4)C3)C2)C(C)(C)C)cc1` [Compound 450, (difluoro(2-(((S)-1-((S)-4-(3-((9-(((S)-1-((2S,4R)-4-hydroxy-2-(((S)-1-(4-(4-methylthiazol-5-yl)phenyl)ethyl)carbamoyl)pyrrolidin-1-yl)-3,3-dimethyl-1-oxobutan-2-yl)amino)-9-oxononyl)amino)-3-oxopropanoyl)-2-((R)-2-phenylmorpholine-4-carbonyl)piperazin-1-yl)-3,3-dimethyl-1-oxobutan-2-yl)carbamoyl)benzo[b]thiophen-5-yl)methyl)phosphonic acid]?
Answer: DC50 [1]: > 10 µM; DC50 [2]: > 10 µM

Question: `Cc1ncsc1-c1ccc([C@H](C)NC(=O)[C@@H]2C[C@@H](O)CN2C(=O)[C@@H](NC(=O)CCCCNC(=O)COc2ccc3c(c2)CN(C(=O)[C@@H](NC(=O)c2cc4cc(C(F)(F)P(=O)(O)O)ccc4s2)C(C)(C)C)[C@H](C(=O)N2CCC[C@H](c4ccccc4)C2)C3)C(C)(C)C)cc1` [Compound 473, (difluoro(2-(((S)-1-((S)-7-(2-((5-(((S)-1-((2S,4R)-4-hydroxy-2-(((S)-1-(4-(4-methylthiazol-5-yl)phenyl)ethyl)carbamoyl)pyrrolidin-1-yl)-3,3-dimethyl-1-oxobutan-2-yl)amino)-5-oxopentyl)amino)-2-oxoethoxy)-3-((R)-3-phenylpiperidine-1-carbonyl)-3,4-dihydroisoquinolin-2(1H)-yl)-3,3-dimethyl-1-oxobutan-2-yl)carbamoyl)benzo[b]thiophen-5-yl)methyl)phosphonic acid] was tested. Which DC50 [2] did it give?
Answer: The DC50 was greater than 10 µM.

Question: For `Cc1ncsc1-c1ccc([C@H](C)NC(=O)[C@@H]2C[C@@H](O)CN2C(=O)[C@@H](NC(=O)CCCCCCCNC(=O)CC(=O)N2CCN(C(=O)[C@@H](NC(=O)c3cc4cc(C(F)(F)P(=O)(O)O)ccc4s3)C(C)(C)C)[C@H](C(=O)N3CCO[C@H](c4ccccc4)C3)C2)C(C)(C)C)cc1` [Compound 449, (difluoro(2-(((S)-1-((S)-4-(3-((8-(((S)-1-((2S,4R)-4-hydroxy-2-(((S)-1-(4-(4-methylthiazol-5-yl)phenyl)ethyl)carbamoyl)pyrrolidin-1-yl)-3,3-dimethyl-1-oxobutan-2-yl)amino)-8-oxooctyl)amino)-3-oxopropanoyl)-2-((R)-2-phenylmorpholine-4-carbonyl)piperazin-1-yl)-3,3-dimethyl-1-oxobutan-2-yl)carbamoyl)benzo[b]thiophen-5-yl)methyl)phosphonic acid], which DC50 [1] is on record?
Answer: Its DC50 is greater than 10 µM.

Question: And the DC50 [2]?
Answer: The DC50 was greater than 10 µM.

Question: `CC(C)(C)[C@H](NC(=O)c1cc2cc(C(F)(F)P(=O)(O)O)ccc2s1)C(=O)N1Cc2cc(OCC(=O)NCC#Cc3ccc4c(c3)C(=O)N(C3CCC(=O)NC3=O)C4=O)ccc2C[C@H]1C(=O)N1CCO[C@H](c2ccccc2)C1` (stereo partly drawn) [Compound 536, ((2-(((2S)-1-((3S)-7-(2-((3-(2-(2,6-dioxopiperidin-3-yl)-1,3-dioxoisoindolin-5-yl)prop-2-yn-1-yl)amino)-2-oxoethoxy)-3-((R)-2-phenylmorpholine-4-carbonyl)-3,4-dihydroisoquinolin-2(1H)-yl)-3,3-dimethyl-1-oxobutan-2-yl)carbamoyl)benzo[b]thiophen-5-yl)difluoromethyl)phosphonic acid] was tested. Which DC50 [2] did it give?
Answer: The DC50 was 1 to 10 µM.

Question: How did the DC50 [3] turn out when `CC(C)(C)[C@H](NC(=O)c1cc2cc(C(F)(F)P(=O)(O)O)ccc2s1)C(=O)N1C[C@@H](OCCCCCCC#Cc2cccc3c2CN(C2CCC(=O)NC2=O)C3=O)C[C@H]1C(=O)N1CCOC(c2cccc3ccccc23)C1` (some centres unmarked) [Compound 612] was run?
Answer: The DC50 was greater than 0.3 µM.
